The source of these data is patent US20140041062A1, “GENETICALLY ENGINEERED MOUSE MODEL FOR AUTISM SPECTRUM DISORDER HAVING DELETION OF SHANK2 GENE AND USE THEREOF” (Industry-Academic Cooperation Foundation, Yonsei University, priority 2012, published 2014).

Entries after “also recorded” stand apart in the source; their conditions may differ.

In assay [1] the test system is Shank2−/− mice. In words: Open field assay (hyperactivity). The class given is in vivo, mouse. Conditions: CDPPB i.p. The procedure:
The size of the open field box was 40×40×40 cm, and the center zone line was 10 cm apart from the edge. Mice were placed in the center of chamber in the beginning of assay, and mouse movements were recorded with a video camera for 60 min, and analyzed by Ethovision 3.1 program (Noldus).
(§1) CDPPB (Ascent scientific) was dissolved in DMSO and polyethylene glycol 400 (DMSO:PEG 400=1:9) to a final concentration of 6 g/l. Wild-type and Shank2^−/− mice received intraperitoneal injection of CDPPB (10 or 3 mg/kg), or the same volume of DSMO-PEG400 mixture, 30 min before three-chamber or other behavioral assays and 40 min before brain sample preparation for immunoblot analyses. D-cycloserine (Ascent Scientific) was dissolved in saline to final concentration of 12 g/l. Wild-type and Shank2^−/− mice received intraperitoneal injection of D-cycloserine (20 mg/kg), or the same volume of saline, 30 min before three-chamber assays.

The subject of a further assay is LTP and LTD. Conditions: cited from earlier work.
Assay [2] has as its system Shank2−/− mice. The assay can be described thus: Anxiety-like behavior (elevated plus-maze, light-dark test). The assay is classed as in vivo, mouse. Conditions: CDPPB i.p. The procedure: The elevated plus-maze consisted of two open arms, two closed arms, and a center area, elevated to a height of 50 cm above the floor. Mice were placed in the center area and allowed to explore the space for 8 min.
The apparatus for light-dark test consisted of light (˜600 lx) and dark (˜5 lx) chambers adhered to each other. An entrance enabled mice to freely move across the light and dark chambers. The size of light chamber was 20×30×20 cm, and that of dark chamber was 20×13×20 cm. Mice were introduced to the center of the light chamber with their heads pointing towards the opposite side of the dark chamber, and allowed to explore the apparatus freely for 10 min. The latency to enter the dark chamber, the time spent in dark and light chambers, and the number of transitions were measured. Transition was defined as the translocation of all four feet of a mouse from one to another chamber.
(§2) CDPPB (Ascent scientific) was dissolved in DMSO and polyethylene glycol 400 (DMSO:PEG 400=1:9) to a final concentration of 6 g/l. Wild-type and Shank2^−/− mice received intraperitoneal injection of CDPPB (10 or 3 mg/kg), or the same volume of DSMO-PEG400 mixture, 30 min before three-chamber or other behavioral assays and 40 min before brain sample preparation for immunoblot analyses. D-cycloserine (Ascent Scientific) was dissolved in saline to final concentration of 12 g/l. […]

The next assay has as its system NMDAR. The assay can be described thus: NMDA/AMPA ratio at hippocampal SC-CA1 synapses of Shank2−/− slices. The class given is cell-based, mouse. Conditions: for NMDA/AMPA ratio: Shank2−/− SC-CA1 synapses / slices; for NMDAR function: Shank2−/− mice, figure legend. The source says:
Thus, the present inventors measured the NMDA/AMPA ratio at Shank2^−/− SC-CA1 synapses. Indeed, the NMDA/AMPA ratio was reduced relative to wild-type synapses (FIG. 2e).
Reduced NMDAR function and associated signaling may contribute to autism spectrum disorder (ASD)-like behaviors in Shank2^−/− mice.
(§3) Consistent with previous findings, CDPPB also normalized the NMDA/AMPA ratio in Shank2^−/− slices (FIG. 4a). […] The smaller extents of signaling deficits in older mice (8 weeks) relative to younger mice (3-4 weeks) may reflect age-dependent reductions in NMDAR-mediated currents, and/or compensatory changes in NMDAR signaling.

Assay [3] relates to Shank2−/− mice. The assay can be described thus: Pup retrieval assay. The class given is in vivo, mouse. Conditions: CDPPB i.p. The procedure: Virgin female mice were isolated for four days before pup retrieval assays. Three normal pups (1-d old; C57BL/6N) were placed at three different corners of a home cage of a test female mouse (wild-type or Shank2^−/−), and the female mouse was allowed to retrieve the pups for 10 min. Efficiency of pup retrieval was measured by the time taken to retrieve the first, second, and third pups.
as §1

In assay [4] the test system is Shank2−/− mice. In words: Three-chamber social interaction assay. The class given is in vivo, mouse. How it is done: The three-chamber social interaction assay consisted of three phases. In the first phase, a wild-type or Shank2^−/− mouse was placed in the three-chambered apparatus with two small containers in the left or right (not center) chamber, and was allowed to explore the environment freely for 10 min for habituation. After 10 min, the wild-type or Shank2^−/− mouse was gently guided to the center chamber, and the two entrances to the center chamber were blocked while an inaminate object (Object) and a stranger mouse (Stranger 1) were placed in the two containers. Then, the two entrances were opened to allow the mouse in the center to explore the new environment freely for 10 min. In the third phase, the test mouse was gently guided to the center chamber again, with the blockade of the entrances. The Object was replaced with Stranger 2, followed by exploration of the Stranger 1 or 2 by the test mouse for 10 min. Exploration was defined as each instance in which wild-type or Shank2^−/− mouse tries to sniff Object/Stranger, or orients its nose towards and come close to Object/Stranger. Time spent in each chamber was measured by Ethovision 3.1 program (Noldus). Individual movement tracks were analyzed by Ethovision and modified by ImageJ to generate heat maps. In addition to time spent in chamber or in exploration, the present inventors used the preference index, which represents a difference in percent exploration time over the targets (Wang, X. et al. Hum Mol Genet 20, 3093-108 (2011)).
as §1

Another assay has as its system NMDAR signaling. The assay can be described thus: Immunoblot analysis of NMDAR signaling in Shank2−/− whole brains and synaptosomes after CDPPB treatment. The assay is classed as in vivo, mouse. Conditions: CDPPB i.p. 40 min before brain sample preparation. The procedure: For whole brain homogenates, mouse brains (3-4 wks) were briefly homogenized in 3 volumes of ice-cold homogenization buffer (0.32 M sucrose, 10 mM HEPES pH7.4, 2 mM EDTA, protease inhibitors, phosphatase inhibitors). Protein concentrations were measured by the Bradford assay. The relative amount of […]α-tubulin was used as a loading control. Synaptosomal fractions were prepared (Blackstone, C. D. et al., J Neurochem 58, 1118-26 (1992)).
as §1
Shank2 deletion may also affect NMDAR-associated signaling that it critically regulates various synaptic events including LTP and LTD (Zhu, J. J. et al. Cell 110, 443-55 (2002); Shepherd, J. D. & Huganir, R. L. Annu Rev Cell Dev Biol 23, 613-43 (2007)). […]
On the technique in general: Immunoblotting shows a protein as a band on a membrane.

A further assay concerns Shank3 knockdown. Conditions: caused by Shank3 knockdown; cited from earlier work.
In the next assay the test system is SC-CA1 synapses. The assay can be described thus: Synaptic plasticity (LTP, LTD) and basal transmission at SC-CA1 synapses of Shank2−/− mice. The assay is classed as cell-based, mouse. The procedure: Next, the present inventors measured synaptic transmission at hippocampal Schaffer collaterals-CA1 pyramidal (SC-CA1) synapses. Basal excitatory transmission such as input-output and paired-pulse ratio was unchanged in Shank2^−/− mice (FIGS. 2a and 2b). In addition, spontaneous transmission and membrane excitability were normal in mutant animals. When synaptic plasticity was tested, long-term potentiation (LTP) induced by high frequency stimulation or theta-burst stimulation were severely impaired in Shank2^−/− mice (FIG. 2c). Long-term depression (LTD) induced by low-frequency stimulation was completely abolished also in Shank2^−/− mice (FIG. 2d). Because LTD induced by low-frequency stimulation activates both NMDA and metabotropic glutamate receptors (NMDARs and mGluRs), the present inventors isolated mGluR-LTD by bath-applying DHPG, an agonist of mGluR5, but found no difference between genotypes.
as §3

In assay [5] the test system is Shank2−/− mice. The assay can be described thus: Repetitive behaviors (jumping) in home cage. The assay is classed as in vivo, mouse. Conditions: CDPPB i.p. The procedure:
Mice in their home cages with fresh bedding were used to measure times spent in repetitive behaviors including jumping, upright scrabbling, grooming, and digging during 10 min. Jumping was defined as the behavior of a mouse where it rears on it hind legs at the corner of the cage, or along the side walls, and jumps so that the two hind legs are simultaneously off the ground. Upright scrabbling was defined as the behavior of a mouse where it rears on it hind legs at the corner of the cage, or along the side walls, and tries to climb up against the wall with the two hind legs alternatively or coordinately touching the ground. Grooming behavior was defined as stroking or scratching of face, head, or body with the two forelimbs, or licking body parts. Digging behavior was defined as the behavior of a mouse where it coordinately uses two fore legs or hind legs to dig out or displace bedding materials.
as §2

For assay [6], the system named is neuroligin-1-deficient mice. Conditions: neuroligin-1-deficient mice with reduced NMDA/AMPA ratio; cited from earlier work.
For another assay, the system named is autism. Conditions: cited from earlier work.

As to `N#Cc1cccc(C(=O)Nc2cc(-c3ccccc3)nn2-c2ccccc2)c1` [CDPPB], in the assay with Shank2−/− mice [1], the hyperactivity entry is reported as “did not rescue”. For the same molecule, in the assay with LTP and LTD, the “LTP and LTD” value is “enhance”; the spatial learning entry was “enhance”. Besides, in the assay on Shank2−/− mice [2], the anxiety-like behaviors entry is “did not rescue”. In the assay with NMDAR, the NMDA/AMPA ratio result is reported as “normalized” and the NMDAR function entry is reported as “normalizes”. The impaired pup retrieval entry with Shank2−/− mice [3] is recorded as “did not rescue”. In addition, in the assay on Shank2−/− mice [4] (CDPPB 10 mg/kg i.p. 30 min before assay), the social interaction entry is “substantially improves; also recorded: substantial recoveries”. Also, the social novelty recognition result in the assay with Shank2−/− mice [4] (CDPPB i.p.) is listed as “no effect”. Moreover, in the assay on Shank2−/− mice [4] (lower-dose CDPPB (3 mg/kg i.p.)), the “social interaction, lower-dose” value was “did not rescue”. For the same molecule, the “NMDAR signaling in synaptosomes” value in the assay with NMDAR signaling (Shank2−/− synaptosomes) is reported as “fully normalized”. Besides, in the assay on NMDAR signaling (Shank2−/− whole brains), the “NMDAR signaling in whole brains” value is “fully normalized”. Besides, in the assay on Shank3 knockdown, the “reduced ERK phosphorylation” value is recorded as “restores” and the reduced excitatory transmission entry is recorded as “restores”. In the assay on SC-CA1 synapses, the basal synaptic transmission entry was “without affecting”, the “impaired LTD at SC-CA1 synapses” value is recorded as “restored” and the “impaired LTP at SC-CA1 synapses” value was “restored”. Further, the repeated jumping entry with Shank2−/− mice [5] is “did not rescue”.
Take `N[C@@H]1CONC1=O` [D-cycloserine]: the repetitive grooming entry in assay [6] is given as “rescue”. Also, in the assay on NMDAR, the NMDA/AMPA ratio entry is recorded as “fully recovered” and the NMDAR function entry is given as “normalizes”. Further, the social interaction entry in the assay with Shank2−/− mice [4] (D-cycloserine 20 mg/kg i.p. 30 min before assay) was “improved”.
Turning to `O=C(Nc1cc(-c2ccccc2)nn1-c1ccccc1)c1ccc([N+](=O)[O-])cc1` [VU-29], in the assay on LTP and LTD, the “LTP and LTD” value is reported as “enhance”; the spatial learning entry is “enhance”.
As for GLYX-13, the “therapeutic effect on autism” value in the assay with autism is on record as “showed a therapeutic effect”.
